From PMC7618541 (Science (New York, N.Y.), 2025) come the findings set out here.

Test [1] has as its target Nudix hydrolase 5 (NUDT5) (Homo sapiens, UniProt Q9UKK9). The test is described as follows: PROTAC degradation of endogenous NUDT5 in cells, western blot, […] h. Type of test: cell-based. (A western blot detects proteins with antibodies after separation by electrophoresis.)
For test [2], the target named is phosphoribosyl pyrophosphate amidotransferase (PPAT) (Homo sapiens, UniProt Q06203). The test is described as follows: GDH-coupled NADH fluorescence assay of purified PPAT. Type of test: biochemical.
phosphoribosyl pyrophosphate amidotransferase (PPAT), sequence (Q06203 12-517): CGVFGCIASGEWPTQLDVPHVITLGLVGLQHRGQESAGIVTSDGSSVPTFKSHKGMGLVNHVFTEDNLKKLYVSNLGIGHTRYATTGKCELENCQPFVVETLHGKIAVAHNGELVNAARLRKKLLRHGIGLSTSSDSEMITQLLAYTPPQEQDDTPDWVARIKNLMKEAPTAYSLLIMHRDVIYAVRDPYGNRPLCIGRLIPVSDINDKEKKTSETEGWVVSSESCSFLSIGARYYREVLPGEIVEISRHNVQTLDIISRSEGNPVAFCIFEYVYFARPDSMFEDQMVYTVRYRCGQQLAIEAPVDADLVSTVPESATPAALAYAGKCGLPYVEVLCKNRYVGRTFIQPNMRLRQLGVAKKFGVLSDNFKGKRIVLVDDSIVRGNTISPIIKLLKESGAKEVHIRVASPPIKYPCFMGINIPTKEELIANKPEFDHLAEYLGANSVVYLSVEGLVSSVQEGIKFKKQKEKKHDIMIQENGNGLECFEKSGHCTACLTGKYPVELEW

Turning to `Cn1c(=O)c2c(nc(N3CCN(C(=O)N4CCC(CN5CCN(c6ccc7c(c6)C(=O)N(C6CCC(=O)NC6=O)C7=O)CC5)CC4)CC3)n2Cc2nnc(-c3ccc(Cl)c(Cl)c3)o2)n(C)c1=O` (centres unmarked) [dNUDT5], the “PROTAC degradation of endogenous NUDT5 in cells, western blot, 20 h” value in test [1] was determined as 100 nM.

Regarding `NC(=O)CC[C@H](N)C(=O)O` [glutamine], the “GDH-coupled NADH fluorescence assay of purified PPAT” value in test [2] is “the first half reaction of PPAT reaction was assayed by monitoring the production of glutamate from glutamine”.
